Measured values taken from patent US20020183256A1, “Cytostatic-integrin conjugates having specifically cleavable linking units” (priority 2000, published 2002).
≈ marks a conversion by molar mass, not a printed value. Like-named read-outs stand apart in the source and are kept apart here. *1 amine or outer side, *2 acyl side, *3 side chain or, on linkers, in order; H or OH if unused. Where a SMILES comes first, the peptide text is derived from it. [ ]: non-standard residue; d: D form. The star is where a group is joined. Camptothecin(20R,20-O) = CC[C@]1(O*)C(=O)OCc2c1cc1n(c2=O)Cc2cc3ccccc3nc2-1; X2 = CCCNC(=O)Nc1cccc(S(=O)(=O)Nc2cccc(C(CC(=O)O)NC(=O)Nc3ccc(N*)cc3)c2)c1; X3 = O=C(Nc1cccc(-c2ccc(S(=O)(=O)*)cc2)c1)Nc1nc2ccccc2[nH]1; X4 = O=C(O)CC(N[*:1])c1cccc(NC(=S)[*:2])c1; CO = O=C([*:1])[*:2]

Assays:
HT29 = assay: Growth inhibition test (MTT), cytotoxic action on tumour cell lines; type: cell-based, human
Description: (§1) The human large intestine cell lines SW 480 and HT29 (ATCC No. CCL 228 and HTB38 and the mouse melanoma cell line B16F10 (CRL 6475) were grown to confluence in Roux dishes in RPMI 1640 medium with addition of 10% FCS. They were then trypsinized and taken up in RPMI plus 10% FCS to a cell count of 50,000 cells or, for B16F10, 20,000 cells per ml. 100 μl of cell suspension/well were added to a 96 microwell plate and incubated at 37° C. for 1 day in a CO2 incubator. A further 100 μl of RPMI medium and 1 μl of DMSO were then added with the test substances. The growth was checked after day 6. For this, 25 μl of MTT solution (3-(4,5-dimethylthiazol-2-yl)-2,5-diphenyltetrazolium bromide) was added to each well at a starting concentration of 5 mg/ml of H2O. The plate was incubated at 37° C. for 5 hours in a CO2 incubator. The medium was then aspirated and 100 μl of i-propanol/well were added. After shaking with 100 μl of H2O for 30 min, the extinction was measured at 595 nm using a Multiplate Reader (BIO-RAD) 3550-UV).
(§2) The cytostatic action is indicated in Table 2 as an IC50 value, in each case for the individual cell lines.

SW 480 = assay: as above; type: cell-based, human
Description: as §1, §2

B16F10 = assay: as above; type: cell-based, mouse
Description: as §1, §2

[1] = In-vivo inhibition of tumour growth using a nude mouse model; parameters: species or system athymic nude mice (NMRI nu/nu strain); details: NMRI nu/nu, mouse, in vivo; intravenously or intraperitoneally day 1-3 and day 15-17; nude mice; read-out: MTD (dose marked MTD)
Excerpt: (§3) In all in-vivo experiments for investigating the inhibition of tumour growth, athymic nude mice (NMRI nu/nu strain) were used. The tumour was developed by serial passage in nude mice. The human origin of the tumour was confirmed by isoenzymatic and immunohistochemical methods.
(§4) The tumour was implanted subcutaneously in both flanks of nu/nu nude mice 6 to 8 weeks old. The treatment was started, depending on the doubling time, as soon as the tumours had reached a diameter of 5-7 mm. The mice were assigned to the treatment group or the control group (5 mice per group having 8-10 assessable tumours) by randomization. The individual tumours of the control group all grew progressively.
(§5) The size of the tumours was measured in two dimensions by means of a slide gauge. The tumour volume, which correlated well with the cell count, was then used for all assessments. The volume was calculated according to the formula “length×breadth×breadth/2” ([a×b^2]/2, a and b represent two diameters arranged at right angles).
(§6) The values of the relative tumour volume (RTV) were calculated for each individual tumour by dividing the tumour size on day X with the tumour size on day 0 (at the time of randomization). The average values of the RTV were then used for the further assessment.
(§7) The inhibition of the increase of the tumour volume (tumour volume of the test group/control group, T/C, in per cent) was the final measured value.
(§8) The compounds can be administered with a daily or an intermittent therapy schedule through a couple of days either by intraperitoneal, intravenious, oral or subcutaneous route.
(§9) The compounds are dissolved in PEG400/water 2:1 and administered intravenously or intraperitoneally from day 1-3 and day 15-17.

[2] = system: melanoma xenograft model (MEXF 989); assay: as above; parameters: species or system athymic nude mice (NMRI nu/nu strain); details: for optimal T/C in % / lethality: intravenously or intraperitoneally day 1-3 and day 15-17; for optimal T/C in %: MEXF 989; for lethality: MEXF 989 nude mice; for inhibition of the tumor growth (in words): subcutaneously growing melanoma xenograft MEXF 989
Excerpt: as §3, §4, §5, §6, §7, §8, §9

MMP-2 = biological target: T1, MMP-2 (Homo sapiens, UniProt P08253); assay: Cleavage of conjugates by MMP-2 in buffer (HPLC); type: biochemical; details: after 6 h incubation with MMP-2; buffer pH 7.5
T1 construct: purchased Calbiochem
T1 sequence (P08253 110-660): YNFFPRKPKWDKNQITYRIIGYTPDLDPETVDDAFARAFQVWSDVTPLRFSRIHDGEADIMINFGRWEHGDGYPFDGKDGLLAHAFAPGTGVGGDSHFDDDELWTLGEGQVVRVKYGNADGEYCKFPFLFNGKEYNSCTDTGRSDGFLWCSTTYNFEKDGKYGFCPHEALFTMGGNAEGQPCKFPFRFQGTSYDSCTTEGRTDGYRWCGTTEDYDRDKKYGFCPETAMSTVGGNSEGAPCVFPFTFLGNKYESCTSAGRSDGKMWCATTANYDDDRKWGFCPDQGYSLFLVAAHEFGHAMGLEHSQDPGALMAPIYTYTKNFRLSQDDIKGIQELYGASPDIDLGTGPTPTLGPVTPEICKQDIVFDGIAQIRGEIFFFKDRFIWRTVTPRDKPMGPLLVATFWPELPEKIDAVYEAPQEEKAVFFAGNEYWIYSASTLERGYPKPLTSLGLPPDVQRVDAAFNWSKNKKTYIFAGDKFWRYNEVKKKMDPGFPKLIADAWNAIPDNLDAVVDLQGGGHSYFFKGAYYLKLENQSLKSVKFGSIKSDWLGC
Description: 2.5 μl MMP-2 (Calbiochem) with a specific activity of 60 μU/μl are incubated with 10 nM of the conjugates exemplified in the example series 1-25 in 1 ml of a medium consisting of 50 mM Tris-HCl pH 7.5, 0.2 M NaCl, 10 mM CaCL2*2H2O and 0.05% Brij 35. The enzyme mediated cleavage of the conjugates is detected by HPLC analysis using an RP18 (5 μM) column with 70% HClO4/water (0.4% v/v) as eluent A and acentonitrile as eluent B (UV detection at […]). The efficiency of the cleavage is assessed by comparing the peak areas of the intact conjugate (starting material) and the cleavage product (tripeptide conjugate of camptothecin) after 6 h and 24 h incubation (cf. Table 5).

αvβ3 receptor = biological target: T2, αvβ3 receptor (Homo sapiens, UniProt P05106+P06756); assay: αvβ3 binding test (echistatin displacement, WGA SPA beads); details: αvβ3 from human A375 cells
T2 construct: αvβ3 from human A375 cells was purified; endogenous in cells; host or cells: human A375 cells (receptor purified from the cells, analogous to Wong et al. 1996)
Description: αvβ3 from human A375 cells was purified analogously to a procedure which was described by Wong et al. (Molecular Pharmacology, 50, 529-537 (1996)). In each case, 10 μl of αvβ3 (5 ng) in TBS pH 7.6, 2 mM CaCl2, 1 mM MgCl2, 1% n-octylglucopyranoside (Sigma); 10 μl of test substance in TBS pH 7.6, 0.1% DMSO and 45 μl of TBS pH 7.6, 2 mM CaCl2, 1 mM MgCl2, 1 mM MnCl2 were incubated at room temperature for 1 h. In each case, 25 μl of WGA SPA beads (Amersham, 4 mg/ml) and 10 μl of echistatin (0.1 μCi, Amersham, chloramine-T labelled) were then added. After 16 hours at room temperature, the samples were measured in a scintillation measuring apparatus (Wallac 1450).

hemopoietic stem cells = assay: CSF-induced proliferation of hemopoietic stem cells (colony formation); type: cell-based, mice; details: Mus musculus, Bone marrow cell, 168 h; murine bone marrow cells, GM-CSF, 7 days; read-out: IC50 values of the inhibition of colony formation of hemopoietic stem cells
Description: Bone marrow cells are flushed out of the femur of mice. 10^5 cells are incubated in McCoy 5A medium (0.3% agar) together with recombinant murine GM-CSF (Genzyme; parent cell colony formation) and the substances (10^−4 to 100 μg/ml) at 37° C. and 7% CO2. 7 days later, the colonies […] and clusters (17-50 cells) are counted.

[3] = IC50 values of the binding to the αvβ3 receptor
[4] = HT29, MTT after day 6, read-out: IC50 values of the cytotoxic action on tumour cell lines, HT29
[5] = SW480, MTT after day 6, read-out: IC50 values of the cytotoxic action on tumour cell lines, SW480
[6] = B16F10, MTT after day 6, read-out: IC50 values of the cytotoxic action on tumour cell lines, B16F10
[7] = read-out: IC50 values of the binding to the αvβ3 receptor

T2 sequence (P06756 31-889 limits assumed): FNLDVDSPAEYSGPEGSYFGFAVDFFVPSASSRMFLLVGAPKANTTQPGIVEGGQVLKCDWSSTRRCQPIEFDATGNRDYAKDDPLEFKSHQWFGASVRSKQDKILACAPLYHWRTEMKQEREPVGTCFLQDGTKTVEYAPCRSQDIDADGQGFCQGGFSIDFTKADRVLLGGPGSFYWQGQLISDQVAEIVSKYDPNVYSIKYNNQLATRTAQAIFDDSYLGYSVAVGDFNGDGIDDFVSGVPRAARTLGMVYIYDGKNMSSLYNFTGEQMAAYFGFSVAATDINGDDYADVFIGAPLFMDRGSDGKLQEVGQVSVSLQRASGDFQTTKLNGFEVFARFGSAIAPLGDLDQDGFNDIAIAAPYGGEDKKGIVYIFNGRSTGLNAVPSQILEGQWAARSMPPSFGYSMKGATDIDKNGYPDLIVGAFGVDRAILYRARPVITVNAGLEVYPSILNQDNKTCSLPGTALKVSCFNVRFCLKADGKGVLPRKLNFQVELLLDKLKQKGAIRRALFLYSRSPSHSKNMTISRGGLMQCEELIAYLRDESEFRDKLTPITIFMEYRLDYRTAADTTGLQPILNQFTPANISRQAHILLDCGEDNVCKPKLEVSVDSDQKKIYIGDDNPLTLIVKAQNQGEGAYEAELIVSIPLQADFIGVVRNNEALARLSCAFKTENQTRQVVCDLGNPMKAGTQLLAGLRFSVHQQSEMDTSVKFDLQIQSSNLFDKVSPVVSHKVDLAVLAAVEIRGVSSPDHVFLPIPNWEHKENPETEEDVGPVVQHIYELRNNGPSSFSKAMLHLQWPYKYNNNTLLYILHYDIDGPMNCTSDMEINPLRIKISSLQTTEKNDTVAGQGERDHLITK
T2 sequence (P06756 891-1048 partner limits assumed): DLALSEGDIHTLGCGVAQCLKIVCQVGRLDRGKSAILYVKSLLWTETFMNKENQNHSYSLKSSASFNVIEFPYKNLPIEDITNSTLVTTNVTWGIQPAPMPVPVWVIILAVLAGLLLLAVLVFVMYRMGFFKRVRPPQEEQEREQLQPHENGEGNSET
T2 sequence (P05106 27-788): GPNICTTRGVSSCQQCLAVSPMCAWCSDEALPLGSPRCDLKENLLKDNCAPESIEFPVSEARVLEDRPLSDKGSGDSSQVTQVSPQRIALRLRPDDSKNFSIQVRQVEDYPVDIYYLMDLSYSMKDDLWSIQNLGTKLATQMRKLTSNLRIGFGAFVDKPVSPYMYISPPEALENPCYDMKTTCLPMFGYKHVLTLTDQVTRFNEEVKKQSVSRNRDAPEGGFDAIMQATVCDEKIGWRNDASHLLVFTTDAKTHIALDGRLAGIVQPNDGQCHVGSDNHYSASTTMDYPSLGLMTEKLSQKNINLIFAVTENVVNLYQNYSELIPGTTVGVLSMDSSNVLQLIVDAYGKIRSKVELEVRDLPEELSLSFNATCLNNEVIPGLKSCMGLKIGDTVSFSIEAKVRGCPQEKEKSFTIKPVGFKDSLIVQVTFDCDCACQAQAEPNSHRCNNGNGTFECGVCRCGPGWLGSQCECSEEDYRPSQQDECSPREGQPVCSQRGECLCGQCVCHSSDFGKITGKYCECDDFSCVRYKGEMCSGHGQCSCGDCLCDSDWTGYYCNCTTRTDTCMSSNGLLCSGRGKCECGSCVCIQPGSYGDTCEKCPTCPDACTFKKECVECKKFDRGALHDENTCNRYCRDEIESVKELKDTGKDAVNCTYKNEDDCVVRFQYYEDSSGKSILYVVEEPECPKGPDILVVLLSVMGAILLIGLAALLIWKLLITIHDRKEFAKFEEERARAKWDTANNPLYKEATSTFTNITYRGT

CCCNC(=O)Nc1cccc(S(=O)(=O)Nc2cccc(C(CC(=O)O)NC(=O)Nc3ccc(NC(=S)N4CCC[C@@H]4C(=O)N[C@@H](CC(C)C)C(=O)NCC(=O)N[C@H](CSC)C(=O)N[C@H](Cc4c[nH]cn4)C(=O)N[C@@H](C(=O)O[C@@]4(CC)C(=O)OCc5c4cc4n(c5=O)Cc5cc6ccccc6nc5-4)C(C)C)cc3)c2)c1 (single isomer, unassigned) [Example 25]
IC50 (HT29; human, 6 days): 80 nM
IC50 (SW 480; human, 6 days): 60 nM
IC50 (B16F10; mouse, 6 days): 250 nM
MTD [1]: 6 mg/kg/day
optimal T/C in % ([2]; 6 mg/kg/day): 19.6%
lethality ([2]; 6 mg/kg/day): 1/5 (MTD)
inhibition of the tumor growth (in words) [2]: effected inhibitions of the tumor growth
MMP-2 mediated cleavage Peak area product/educt x100 (MMP-2): 9

CCCNC(=O)Nc1cccc(S(=O)(=O)Nc2cccc(C(CC(=O)O)NC(=O)Nc3ccc(NC(=O)N4CCC[C@@H]4C(=O)N[C@@H](CC(C)C)C(=O)NCC(=O)N[C@H](CC(C)C)C(=O)N[C@H](CC(N)=O)C(=O)N[C@@H](C(=O)O[C@@]4(CC)C(=O)OCc5c4cc4n(c5=O)Cc5cc6ccccc6nc5-4)C(C)C)cc3)c2)c1 (stereo partly drawn) [Example 12] ({X2-CO}-[dP]LG[dL][dN][dV]-{Camptothecin(20R,20-O)})
IC50 (αvβ3 receptor; [3]): 300 nM
IC50 (HT29; [4]): 30 nM
IC50 (SW 480; [5]): 40 nM
IC50 (B16F10; [6]): 150 nM
MMP-2 mediated cleavage Peak area product/educt x100 (MMP-2): 70

CCCNC(=O)Nc1cccc(S(=O)(=O)Nc2cccc(C(CC(=O)O)NC(=O)Nc3ccc(NC(=S)N4CCC[C@@H]4C(=O)N[C@@H](CC(C)C)C(=O)NCC(=O)N[C@H](CC(C)C)C(=O)N[C@H](CC(N)=O)C(=O)N[C@@H](C(=O)O[C@@]4(CC)C(=O)OCc5c4cc4n(c5=O)Cc5cc6ccccc6nc5-4)C(C)C)cc3)c2)c1 (single isomer, unassigned) [Example 10]
IC50 (αvβ3 receptor; [7]): 20 nM
IC50 (HT29; human, 6 days): 100 nM
IC50 (SW 480; human, 6 days): 70 nM
IC50 (B16F10; mouse, 6 days): 600 nM
MTD [1]: 6 mg/kg/day
optimal T/C in % ([2]; 6 mg/kg/day): 11.4%
lethality ([2]; 6 mg/kg/day): 0/5 (MTD)
inhibition of the tumor growth (in words) [2]: effected inhibitions of the tumor growth
MMP-2 mediated cleavage Peak area product/educt x100 (MMP-2): 16

CC[C@@]1(O)C(=O)OCc2c1cc1n(c2=O)Cc2cc3ccccc3nc2-1 [Camptothecin, 20(S)-Camptothecin, reference compound]
IC50 (hemopoietic stem cells): 0.25 ng/mL (≈ 0.718 nM)

CCCNC(=O)Nc1cccc(S(=O)(=O)Nc2cccc(C(CC(=O)O)NC(=O)Nc3ccc(NC(=S)N4CCC[C@@H]4C(=O)N[C@@H](CC(C)C)C(=O)NCC(=O)N[C@H](CC(C)C)C(=O)N[C@H](Cc4c[nH]cn4)C(=O)N[C@@H](C(=O)O[C@@]4(CC)C(=O)OCc5c4cc4n(c5=O)Cc5cc6ccccc6nc5-4)C(C)C)cc3)c2)c1 (single isomer, unassigned) [Example 2]
IC50 (αvβ3 receptor; [7]): 25 nM
IC50 (HT29; human, 6 days): 180 nM
IC50 (SW 480; human, 6 days): 100 nM
IC50 (B16F10; mouse, 6 days): 500 nM
MTD [1]: 12 mg/kg/day
optimal T/C in % ([2]; 6 mg/kg/day): 17.7%
lethality ([2]; 6 mg/kg/day): 0/5
optimal T/C in % ([2]; 12 mg/kg/day): 7.4%
lethality ([2]; 12 mg/kg/day): 1/5 (MTD)
inhibition of the tumor growth (in words) [2]: effected inhibitions of the tumor growth
MMP-2 mediated cleavage Peak area product/educt x100 (MMP-2): 18

CCCNC(=O)Nc1cccc(S(=O)(=O)Nc2cccc(C(CC(=O)O)NC(=O)Nc3ccc(NC(=S)N4CCC[C@@H]4C(=O)N[C@@H](CC(C)C)C(=O)NCC(=O)N[C@H](CC(C)C)C(=O)N[C@H](CC(N)=O)C(=O)N[C@@H](C(=O)O[C@@]4(CC)C(=O)OCc5c4cc4n(c5=O)Cc5cc6ccccc6nc5-4)C(C)C)cc3)c2)c1 (single isomer, unassigned) [Example 11]
IC50 (αvβ3 receptor; [7]): 300 nM
IC50 (HT29; human, 6 days): 200 nM
IC50 (SW 480; human, 6 days): 150 nM
IC50 (B16F10; mouse, 6 days): 400 nM
MMP-2 mediated cleavage Peak area product/educt x100 (MMP-2): 20

CC[C@]1(OC(=O)[C@H](NC(=O)[C@@H](Cc2c[nH]cn2)NC(=O)[C@@H](CC(C)C)NC(=O)CNC(=O)[C@H](CC(C)C)NC(=O)[C@H]2CCCN2C(=S)Nc2cccc(C(CC(=O)O)NS(=O)(=O)c3ccc(-c4cccc(NC(=O)Nc5nc6ccccc6[nH]5)c4)cc3)c2)C(C)C)C(=O)OCc2c1cc1n(c2=O)Cc2cc3ccccc3nc2-1 (stereo partly drawn) [Example 4] (X3-[X4][dP]LG[dL][dH][dV]-{Camptothecin(20R,20-O)})
IC50 (αvβ3 receptor; [3]): 150 nM
IC50 (HT29; [4]): 90 nM
IC50 (SW 480; [5]): 70 nM
IC50 (B16F10; [6]): 400 nM
MMP-2 mediated cleavage Peak area product/educt x100 (MMP-2): 6
